Data set [1] concerns TLR2/TLR6. The data set is described as follows: Surface TLR specificity, TNF-α secretion in differentiated THP-1. The data set is classed as cell-based, human. The conditions noted are these: 2 and 5 μM, differentiated THP-1, Pam3CSK4. The procedure:
(§1) RAW 264.7 and differentiated THP-1 cells were seeded into 96-well plates at 2 × 10^4 cells per well, while Daudi cells were seeded at 5 × 10^4 cells per well. After stabilization for 30 min, cells were stimulated with specific TLR agonists for 4 or 24 h. Supernatants were diluted and transferred to precoated ELISA plates to measure TNF-α secretion using kits from Invitrogen. Optical absorbance was measured using a BioTek Synergy HTX multimode microplate reader, and data were interpolated using BioTek Gen5 software.
(§2) The cells were activated with agonistic ligands: […], TLR3 (poly I:C, 2 μg/ml, 24 h), TLR4 (LPS, 10 or 100 ng/ml, 4 h), TLR5 (FLA-ST, 500 ng/ml, 4 h), TLR7 (ORN06/LyoVec, 2 μg/ml, 24 h; and IMQ, 1 μg/ml, 4 h), TLR8 (TL8-506, 2 μg/ml, 24 h) and TLR9 (ODN2395, 1 μM, 4 h) at various concentrations in RAW 264.7 cells, human Daudi cells and THP-1 cells. Data are from at least three independent experiments (n = 3) and statistical differences between the induced case and other cases were analyzed and verified using a one-tailed Student’s t-test (*P < 0.05, **P < 0.01, ***P < 0.001).
(§3) Given the structural similarities among TLR family proteins, achieving high selectivity is challenging. We tested the effects of ETI41 and ETI60 on various surface TLRs to determine their specificity. […] TLRs activate transcription factors, including NF-κB, MAPKs, c-Jun N-terminal kinase (JNK), extracellular signal-regulated kinase (ERK) and IRF7, which regulate cellular functions such as proliferation and apoptosis. Western blot analysis confirmed that ETI41 and ETI60 inhibited IMQ- or ODN2395-induced phosphorylation of MAPKs (p-ERK, p-JNK and p-p38), nuclear translocation of the NF-κB p65 subunit, Iκ-Bα degradation and IRF7 expression in RAW 264.7 cells (Fig. 2a–c and Supplementary Figs. 2 and 3).

Data set [2] has as its system TLR1/TLR2. The data set is described as above. Type of data set: cell-based, human. Particulars: 2 and 5 μM, differentiated THP-1, FSL-1. The procedure:
as §1, §2, §3

The target of data set [3] is T1, mTLR3 (Mus musculus, UniProt Q99MB1).
T1 construct: reduction in TNF-α secretion in mouse RAW 264.7 cells; endogenous in cells; host or cells: RAW 264.7
T1 sequence (Q99MB1 26-905): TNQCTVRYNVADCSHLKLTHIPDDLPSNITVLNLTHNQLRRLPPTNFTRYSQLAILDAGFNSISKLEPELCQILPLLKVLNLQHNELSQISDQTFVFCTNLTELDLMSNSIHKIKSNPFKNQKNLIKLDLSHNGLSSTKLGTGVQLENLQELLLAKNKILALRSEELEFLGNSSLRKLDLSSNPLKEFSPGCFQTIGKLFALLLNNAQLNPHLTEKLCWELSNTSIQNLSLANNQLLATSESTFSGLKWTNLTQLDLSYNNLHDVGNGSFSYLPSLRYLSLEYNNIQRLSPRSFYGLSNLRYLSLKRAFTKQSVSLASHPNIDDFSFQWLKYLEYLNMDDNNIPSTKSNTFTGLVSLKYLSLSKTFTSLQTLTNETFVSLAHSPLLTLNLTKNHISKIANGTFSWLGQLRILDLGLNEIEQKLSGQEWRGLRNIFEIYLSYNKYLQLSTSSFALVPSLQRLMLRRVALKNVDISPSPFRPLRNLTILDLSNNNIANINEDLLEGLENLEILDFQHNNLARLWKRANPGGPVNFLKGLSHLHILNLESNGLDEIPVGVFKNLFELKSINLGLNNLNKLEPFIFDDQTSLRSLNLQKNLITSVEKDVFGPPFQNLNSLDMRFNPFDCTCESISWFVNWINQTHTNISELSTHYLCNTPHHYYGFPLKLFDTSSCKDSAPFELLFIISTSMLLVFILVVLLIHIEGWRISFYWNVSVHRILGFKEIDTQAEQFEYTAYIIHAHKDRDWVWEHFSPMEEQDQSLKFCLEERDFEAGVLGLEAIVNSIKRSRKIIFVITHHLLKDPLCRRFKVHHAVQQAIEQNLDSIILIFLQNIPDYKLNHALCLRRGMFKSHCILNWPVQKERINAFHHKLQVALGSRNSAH
The data set is described as follows: TLR3 inhibition, poly I:C-induced mTNFα in RAW 264.7. The data set is classed as cell-based. How it is done: as §1
One-tailed paired Student’s t-tests were performed using Microsoft Excel (Microsoft). Semi-logarithmic conversions and nonregression curve analyses for calculating 50% lethal concentration (LC50) and 50% inhibitory concentration (IC50) values were conducted using GraphPad Prism 7.0 (GraphPad). The therapeutic index was calculated as […]. Animal experimental results are expressed as mean ± standard deviation and analyzed using SPSS v.20 (IBM SPSS Statistics). Homogeneity of variance was assessed using Levene’s test. […]

The subject of data set [4] is IL-23-induced psoriasis. Kind of data set: IL-23-induced psoriasis in mice. The data set is classed as in vivo, mouse. Particulars: 60 mg/kg oral daily; for Improvement of disease symptoms: versus anti-IL-17A antibody IP. How it is done: Six-week-old female C57BL/6J mice were assigned to the following treatment groups: vehicle (n = 5), IMQ (n = 5), ETI41 (n = 4) and ETI60 (n = 5). The mice were obtained from Orient Bio to evaluate the effects of ETI41 and ETI60 on induced psoriasis-like symptoms. This study was approved by the Institutional Animal Care and Use Committee (IACUC; approval no. 2014-0007). Psoriasis was induced using Aldara cream (3M Pharmaceuticals), which was applied topically at 62.5 mg/cm² daily from the day after hair removal until the fourth day. Mice were orally administered 60 mg/kg ETI41 or ETI60 daily commencing on the second day of induction. For IL-23-induced psoriasis, the mice were assigned to the following treatment groups: vehicle (n = 5), IL-23 (n = 5), ETI41 (n = 5), ETI60 (n = 5) and anti-IL-17 Ab (n = 5). Recombinant mouse IL-23 (0.25 mg/kg; BioLegend) was administered via intradermal injection around the ear daily, starting the day after hair removal and continuing until the eighth day. Positive control mice received intraperitoneal (IP) injections of 30 mg/kg anti-mouse IL-17A antibody (BioLegend) on days 2, 5 and 8, while test group mice were administered daily oral doses of 60 mg/kg of ETI41 or ETI60. Changes in body weight and Psoriasis Area and Severity Index (PASI) scores (erythema, scaling and thickness) were recorded daily. Mice were initially anesthetized in an induction chamber with a gas mixture of 4% isoflurane in 70:30 […] and O2, delivered at a flow rate of 0.8 l/min. Subsequently, the isoflurane concentration was reduced to 2%, and the mice were euthanized under anesthesia via endotracheal intubation. Skin samples were collected, fixed and stained with hematoxylin and eosin for histological analysis. Dermal and epidermal thicknesses were measured using a Leica DMi8 microscope (Leica). Immunohistochemical analyses were performed using primary antibodies against CD68 (R&D Systems, MAB101141), Ki-67 (Cell Signaling Technology, 12202), IL-17A (Novus Biologicals, NBP1-72027) and IL-23 (Novus Biologicals, NBP1-76697), followed by detection using biotinylated secondary antibodies (Vector Laboratories) and diaminobenzidine (Vector Laboratories) visualization. Fluorescence measurements for IL-23-induced psoriasis were performed using primary antibodies against CD68 and Ki-67, followed by Alexa Fluor-conjugated secondary antibodies (Life Technologies). Fluorescence was analyzed using a Leica DMi8 microscope.
Anti-IL17A antibody (Ab, 60 µg) was administered by IP injection as a positive control on days 2, 5 and 8. […] CD68 and Ki-67 expression patterns were determined in skin sections from a representative of each group using immunofluorescence. i Ear skin and epidermis thickness, CD68 expression and percentage of Ki-67 cells were examined from 4’,6-diamidino-2-phenylindole-stained cells. Statistical differences between the induced case and other cases were analyzed and verified using a one-tailed Student’s t-test (*P < 0.05, **P < 0.01, ***P < 0.001).
Next, we investigated the therapeutic efficacy of ETI41 and ETI60 in an IL-23-induced mouse model of psoriasis. Psoriasis was induced through intradermal injections of recombinant murine IL-23. As a positive control, an IL-17A antibody was administered intraperitoneally at a dose of 30 mg/kg on days 2, 5 and 8 (Fig. 4f). ETI41 or ETI60 was orally administered daily at a dose of 60 mg/kg. […] These findings indicate that ETI41 and ETI60 effectively alleviate the progression of psoriasis, either through direct involvement of TLR7 or through an indirect involvement of the IL-23–Th17 axis.

Usually IC50 stands for the concentration at which inhibition is half-maximal.

`Cc1cc2c(N)c3c(nc2n1CCCN(C)C)CCCCCC3` [ETI41]: in data set [1], the “Inhibition of TLR2/TLR6 (TNF-α secretion)” value is “neither compound inhibited”. Moreover, the “Inhibition of TLR1/TLR2 (TNF-α secretion)” value in data set [2] is reported as “neither compound inhibited”. Also, the IC50 in data set [3] is 993 nM. For the same compound, in data set [4], the Body weight entry was “without significant differences”, the CD68 expression result is “significantly decreased”, the Ear thickness entry was “significantly decreased” and the Epidermal thickness result is given as “significantly decreased”. Also, in data set [4], the Ki-67 keratinocyte proliferation entry was “significantly decreased” and the “Improvement of disease symptoms” value is reported as “comparable to or better than the anti-IL-17A antibody”.

On to `COc1ccc2c3c(N)c4c(nc3n(CCCN(C)C)c2c1)CCCC4` [ETI60], for which the “Inhibition of TLR2/TLR6 (TNF-α secretion)” value in data set [1] is on record as “neither compound inhibited”. Also, in data set [2], the “Inhibition of TLR1/TLR2 (TNF-α secretion)” value is “neither compound inhibited”. Moreover, the IC50 in data set [3] was determined as 372 nM. For the same compound, in data set [4], the Body weight result is listed as “without significant differences”, the CD68 expression entry is recorded as “significantly decreased”, the Ear thickness result is given as “significantly decreased” and the Epidermal thickness result was “significantly decreased”. Besides, in data set [4], the Ki-67 keratinocyte proliferation result was “significantly decreased” and the “Improvement of disease symptoms” value was “comparable to or better than the anti-IL-17A antibody”.
